Patent publication US12268632B2, “Self-retaining implantable drug delivery device” (GoldenBiotech, LLC, priority 2018, dated 2025)

What was measured:
Format in all cases: physicochemical
[1] = In vitro drug release from drug-loaded silicone polymer matrix in PBS pH 7.4 at 37° C., RPHPLC; conditions: uncoated silicone polymer matrix loaded with 10% latanoprost, FIG. 5
Method: To test the controlled release properties of the disclosed drug-loaded silicone polymer matrices, the effects of a coating were examined. In these experiments, test samples were made as described in Example 1 to produce thin-disc-shaped drug-loaded polymer matrix. From this material, test samples were prepared by 1) cutting out rectangular polygons of about 3 mm length, about 1 mm width and about 1 mm height were cut from polymerized drug-loaded material; or 2) cutting out cylindrical plugs of about 3 mm length and having a diameter of about 0.5 mm to about 1 mm. The weight of the test samples was in the range of about 0.1 mg to about 4 mg.
These cut test samples were then coated using one of three procedures. […]
To examine the drug release properties of a test sample, each sample was placed in 2 mL Eppendorf tube containing 1.5 mL of Phosphate Buffered Saline, pH 7.4 (PBS). […] An aliquot of the removed PBS was then analyzed by reversed phase HPLC (RPHPLC) to determine the amount of drug released from the test sample during the incubation period. […] Peak detection and quantitation were determined by establishing a calibration curve using known amounts of each drug tested and the amount of drug present in the test sample aliquot interpolated from this calibration curve using ChemStation software.

[2] = Higuchi equation analysis of drug release (cumulative release vs square root of time); conditions: coated drug-loaded silicone polymer matrices
Method: In order to ascertain whether the mechanism of drug release was based on diffusion, data obtained from various coated silicone polymer matrices were analyzed using the Higuchi equation. This analysis determines the degree of proportionality between the cumulative amount of drug released and the square root of time (SQRT). […] As exemplified FIG. 10, data is plotted as the square root of time taken on the x-axis and the cumulative percentage of drug release on the y-axis.

[3] = Physical appearance and durometer mechanical properties of drug-loaded silicone polymer matrix test samples
Text: To test the loading capacity of a silicone elastomer polymer matrix for a prostaglandin analogue, polymer matrix with different amounts and types of a prostaglandin analogue were made and the physical and mechanical properties of the resulting polymerized drug-loaded matrix were characterized (Tables 1-3). These polymer matrix test samples were made by mixing together a prostaglandin analogue, a liquid cyclic vinyl siloxane elastomer, a crosslinker, and a catalyst using a high-speed mixer and then heated the capped container at 70° C. for 24 hours to cure the mixture. A filler, such as a fumed silica, was also used to provide sufficient mechanical strength to the polymerized matrix. In addition, an inhibitor was used to slow the crosslinking reaction to a workable rate. The resulting thin-disc-shaped drug-loaded polymer matrix was allowed to cool to room temperature and then placed in 4° C. for 24 hours to increase stiffness of the material. The physical appearance of each drug-loaded polymer matrix test sample was examined visually and its mechanical properties analyzed using a durometer.

[4] = Chemical stability of prostaglandin analogues in PBS, RPHPLC; conditions: PBS at pH 4, 7 and 10 and at 4° C., 33° C. and 50° C.
Method: The chemical stability of prostaglandin analogues was also examined. In these experiments, a prostaglandin analogue was incubated in phospho-buffered saline (PBS) at pH 4, 7 and 10 and at 4° C., 33° C. and 50° C. representing long term storage, eye temperature and accelerate temperature conditions respectively. Analyses were performed by RPHPLC as described in Example 2, noting any hydrolysis products formed. […] This stability is most likely due to the amide linkage in bimatoprost which is much more hydrolytically stable than the ester linkage in latanoprost and travoprost.

[5] = Korsmeyer-Peppas analysis of drug release (log percent released vs log time)
Method: To confirm the results obtained based on the Higuchi equation analysis, the data above was also analyzed using the Korsmeyer-Peppas plot, which evaluates the mechanism of drug release by plotting the log of percent drug released over the log time in hours. If n equals 0.45, then Fickian diffusion is indicated for a cylinder (0.42 for cylinder of low aspect ratio). […] As exemplified FIG. 11, data is plotted as the log of cumulative percent drug released on the y-axis and the log time in hours on the x-axis.

[6] = Release from post-loaded travoprost section of the implantable device; conditions: post loaded 3 mm section, uncoated, at 38 days
Method: A central section of a self-retaining implantable drug delivery device disclosed herein was loaded with travoprost by cutting a 3 mm section of the device and then placed into 0.200 ml of hexanes for 3 hours. Following this period, the self-retaining implantable drug delivery device was placed immediately into 0.050 mL of a travoprost stock solution 25 mg/mL in ethanol and allowed to stand overnight. The following day, this section was washed sequentially by dipping into a water bath, followed by a 10% acetonitrile bath. It was dried at 80 C and set to release the following day. The section was allowed to release over a period of 38 days. The loading was determined to be approximately 13 mcg. […] This release profile is predicted by the Higuchi mechanism. This type of loading procedure we term post loading. The loaded section is coated with a poly(p-xylylene) polymer and two tiny holes are placed completely through the section. The section is then molded together with the two flanking sections of the stent to form the final product. The release from this modified stent follows a near zero order release in vitro and in vivo in preclinical animal models and clinical studies.

[7] = Drug Loading 5%, coated drug-loaded silicone polymer matrices
[8] = Drug Loading 10%, coated drug-loaded silicone polymer matrices
[9] = Drug Loading 15%, coated drug-loaded silicone polymer matrices
[10] = Drug Loading 20%, coated drug-loaded silicone polymer matrices
[11] = Drug Loading 2.5%, coated drug-loaded silicone polymer matrices

Average Linear Regression r^2 Value (Higuchi) ([2]; Drug Loading 5%)	Average Linear Regression r^2 Value (Higuchi) ([2]; Drug Loading 10%)	Average Linear Regression r^2 Value (Higuchi) ([2]; Drug Loading 15%)	Average Linear Regression r^2 Value (Higuchi) ([2]; Drug Loading 20%)	amount that would not produce a satisfactory drug-loaded silicone polymer matrix [3]	chemical stability (hydrolysis) [4]	Average n Values (Korsmeyer-Peppas) [5, 7]	Average n Values (Korsmeyer-Peppas) [5, 8]	Average n Values (Korsmeyer-Peppas) [5, 9]	Average n Values (Korsmeyer-Peppas) [5, 10]	Average n Values (Korsmeyer-Peppas) ([5]; Mean over drug loadings)	Average Linear Regression r^2 Value (Higuchi) ([2]; Drug Loading 2.5%)	amount released [6]	Average n Values (Korsmeyer-Peppas) [5, 11]	Average Linear Regression r^2 Value (Higuchi) ([2]; Drug Loading 1%)	Average n Values (Korsmeyer-Peppas) ([5]; Drug Loading 1%, coated drug-loaded silicone polymer matrices)	Compound	release profile [1]	physical appearance of silicone polymer matrix ([3]; 25% test sample)	physical appearance of silicone polymer matrix ([3]; 15% and 20% test samples)	physical appearance of silicone polymer matrix ([3]; 20% test sample)
0.972	0.941			≥ 15%	had the requisite stability	0.507±	0.453±			0.50 ± 0.09	0.976	99%	0.543±			CC(C)OC(=O)CCC/C=C\C[C@@H]1[C@@H](/C=C/[C@@H](O)COc2cccc(C(F)(F)F)c2)[C@H](O)C[C@@H]1O [Travoprost, travoprost]			exhibited more elasticity but had surfaces with tacky attributes and a consistency that was not fully homogeneous	
0.997	0.988	0.994	0.972	≥ 20%	the most stable	0.411±	0.377±	0.380±	0.601±	0.37 ± 0.08	0.995		0.372±	0.992	0.326±	CCNC(=O)CCC/C=C\C[C@@H]1[C@@H](/C=C/[C@@H](O)CCc2ccccc2)[C@H](O)C[C@@H]1O [Bimatoprost, bimatoprost]				brittle and contained clumps of unincorporated components from the mixture

Compound	Average Linear Regression r^2 Value (Higuchi) ([2]; Drug Loading 5%)	Average Linear Regression r^2 Value (Higuchi) ([2]; Drug Loading 10%)	Average Linear Regression r^2 Value (Higuchi) ([2]; Drug Loading 15%)	Average Linear Regression r^2 Value (Higuchi) ([2]; Drug Loading 20%)	amount that would not produce a satisfactory drug-loaded silicone polymer matrix [3]	chemical stability (hydrolysis) [4]	Average n Values (Korsmeyer-Peppas) [5, 7]	Average n Values (Korsmeyer-Peppas) [5, 8]	Average n Values (Korsmeyer-Peppas) [5, 9]	Average n Values (Korsmeyer-Peppas) [5, 10]	Average n Values (Korsmeyer-Peppas) ([5]; Mean over drug loadings)	Average Linear Regression r^2 Value (Higuchi) ([2]; Drug Loading 2.5%)	amount released [6]	Average n Values (Korsmeyer-Peppas) [5, 11]	Average Linear Regression r^2 Value (Higuchi) ([2]; Drug Loading 1%)	Average n Values (Korsmeyer-Peppas) ([5]; Drug Loading 1%, coated drug-loaded silicone polymer matrices)	release profile [1]	physical appearance of silicone polymer matrix ([3]; 25% test sample)	physical appearance of silicone polymer matrix ([3]; 15% and 20% test samples)	physical appearance of silicone polymer matrix ([3]; 20% test sample)
CC(C)OC(=O)CCC/C=C\C[C@@H]1[C@@H](CC[C@@H](O)CCc2ccccc2)[C@H](O)C[C@@H]1O [Latanoprost, latanoprost]	0.964	0.983	0.990	0.990	≥ 25%	travoprost was significantly more stable than latanoprost	0.504±	0.501±	0.712±	1.200±	0.57 ± 0.16						rapid release of the drug over the first five days, which then tapers off and by day 12 shows no further significant release	exhibited more elasticity but had a surface with tacky attributes and a consistency that was not fully homogeneous		
